Each structure is given as a SMILES string. Some results are limits rather than exact numbers.

This test deals with T1, full-length beta-catenin (Axin site) (Homo sapiens, UniProt P35222).
T1 construct: 15 nM full-length beta-catenin, 20 nM FITC labeled peptide in buffer
T1 sequence (P35222 1-781): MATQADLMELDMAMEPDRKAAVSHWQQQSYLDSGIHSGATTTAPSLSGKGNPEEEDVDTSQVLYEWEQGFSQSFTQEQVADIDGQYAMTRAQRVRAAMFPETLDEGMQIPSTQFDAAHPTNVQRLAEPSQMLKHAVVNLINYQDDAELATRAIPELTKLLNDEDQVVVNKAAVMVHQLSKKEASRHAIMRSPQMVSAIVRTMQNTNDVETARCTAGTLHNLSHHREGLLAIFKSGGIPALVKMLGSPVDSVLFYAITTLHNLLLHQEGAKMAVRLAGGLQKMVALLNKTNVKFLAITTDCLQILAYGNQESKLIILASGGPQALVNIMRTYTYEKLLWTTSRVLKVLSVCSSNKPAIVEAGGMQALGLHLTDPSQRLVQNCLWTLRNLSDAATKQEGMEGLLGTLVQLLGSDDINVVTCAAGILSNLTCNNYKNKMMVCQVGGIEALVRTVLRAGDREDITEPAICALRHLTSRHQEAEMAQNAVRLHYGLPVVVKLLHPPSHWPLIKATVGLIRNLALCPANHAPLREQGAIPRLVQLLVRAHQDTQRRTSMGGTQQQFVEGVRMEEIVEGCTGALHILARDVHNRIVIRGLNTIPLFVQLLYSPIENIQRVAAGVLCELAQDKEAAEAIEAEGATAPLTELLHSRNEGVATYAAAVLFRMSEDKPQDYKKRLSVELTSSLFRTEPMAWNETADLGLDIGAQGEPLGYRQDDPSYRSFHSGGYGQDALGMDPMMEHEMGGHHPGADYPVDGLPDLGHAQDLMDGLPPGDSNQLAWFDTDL
Nature of the test: Competition fluorescence polarization assay (Axin site probe). The format is binding. Particulars: competition fluorescence polarization, Table 2; read-out: in vitro FP EC50. A digest of the protocol: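 Competition FP: 15 nM full-length β-catenin pre-incubated 5 min with 20 nM FITC-labelled stapled Axin-site peptide, then titrated peptide added (3-fold series from 5 μM) for 15 min in the dark. Buffer 50 mM Tris pH 8.0, 250 mM NaCl, 2% glycerol, 0.5 mM EDTA; duplicate reads.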
Usually EC50 stands for the concentration needed to bring the measured effect to its halfway point. `CC[C@H](C)[C@@H]1NC(=O)[C@H](Cc2ccccn2)NC(=O)[C@H](C)NC(=O)[C@H](CC(=O)O)NC(=O)[C@H](CC(C)C)NC(=O)[C@H]([C@@H](C)CC)NC(=O)[C@](C)(NC(=O)[C@H](C)NC(C)=O)CCCCCCC=CCOC(=O)N2CC[C@@](C(=O)N[C@@H](CC3CCCCC3)C(=O)N[C@H](C(=O)N[C@@H](Cc3c[nH]c4ccccc34)C(N)=O)C(C)C)(C2)NC1=O` (single isomer, unassigned) [FP0566c Isomer 1, Ac-A-R8-I-L-D-A-2pyr-I-MB-Cha-V-W-NH2]: the EC50 is above 5 µM.

For `CCC[C@H](NC(=O)[C@]12CCN(C1)C(=O)OCC=CCCCCCC[C@@](C)(NC(=O)[C@H](C)NC(C)=O)C(=O)N[C@@H]([C@@H](C)CC)C(=O)N[C@@H](CC(C)C)C(=O)N[C@@H](CC(=O)O)C(=O)N[C@@H](C)C(=O)N[C@@H](Cc1ccccn1)C(=O)N[C@@H]([C@@H](C)CC)C(=O)N2)C(=O)N[C@H](C(=O)N[C@@H](Cc1c[nH]c2ccccc12)C(N)=O)C(C)C` (single isomer, unassigned) [FP0567c Isomer 1, Ac-A-R8-I-L-D-A-2pyr-I-MB-Nva-V-W-NH2], the EC50 is above 5 µM.

Turning to `CCC[C@H](NC(=O)[C@]12CCN(C1)C(=O)OCC=CCCCCCC[C@@](C)(NC(=O)[C@H](C)NC(C)=O)C(=O)N[C@@H]([C@@H](C)CC)C(=O)N[C@@H](CC(C)C)C(=O)N[C@@H](CC(=O)O)C(=O)N[C@@H](C)C(=O)N[C@@H](Cc1ccccn1)C(=O)N[C@@H]([C@@H](C)CC)C(=O)N2)C(=O)N[C@H](C(=O)N[C@@H](Cc1c[nH]c2ccccc12)C(N)=O)C(C)C` (single isomer, unassigned) [FP0567c Isomer 2, Ac-A-R8-I-L-D-A-2pyr-I-MB-Nva-V-W-NH2], the half-maximal effective concentration (EC50) is above 5 µM.

On to `CC[C@H](C)[C@@H]1NC(=O)[C@H](Cc2ccccn2)NC(=O)[C@H](C)NC(=O)[C@H](CC(=O)O)NC(=O)[C@H](CC(C)C)NC(=O)[C@H]([C@@H](C)CC)NC(=O)[C@](C)(NC(=O)[C@H](C)NC(C)=O)CCCCCCC=CCOC(=O)N2CC[C@@](C(=O)N[C@H](C(=O)N[C@H](C(=O)N[C@@H](Cc3c[nH]c4ccccc34)C(N)=O)C(C)C)C(C)(C)C)(C2)NC1=O` (single isomer, unassigned) [FP0568c Isomer 1, Ac-A-R8-I-L-D-A-2pyr-I-MB-tLeu-V-W-NH2], for which the EC50 is above 5 µM.

As to `CC[C@H](C)[C@@H]1NC(=O)[C@H](Cc2ccccn2)NC(=O)[C@H](C)NC(=O)[C@H](CC(=O)O)NC(=O)[C@H](CC(C)C)NC(=O)[C@H]([C@@H](C)CC)NC(=O)[C@](C)(NC(=O)[C@H](C)NC(C)=O)CCCCCCC=CCOC(=O)N2CC[C@@](C(=O)N[C@H](C(=O)N[C@H](C(=O)N[C@@H](Cc3c[nH]c4ccccc34)C(N)=O)C(C)C)C(C)(C)C)(C2)NC1=O` (single isomer, unassigned) [FP0568c Isomer 2, Ac-A-R8-I-L-D-A-2pyr-I-MB-tLeu-V-W-NH2], the EC50 is above 5 µM.

On to `CC[C@H](C)[C@@H]1NC(=O)[C@H](Cc2ccccn2)NC(=O)[C@H](C)NC(=O)[C@H](CC(=O)O)NC(=O)[C@H](CC(C)C)NC(=O)[C@H]([C@@H](C)CC)NC(=O)[C@](C)(NC(=O)[C@H](C)NC(C)=O)CCCCCCC=CCOC(=O)N2CC[C@@](C(=O)N[C@@H](Cc3ccco3)C(=O)N[C@H](C(=O)N[C@@H](Cc3c[nH]c4ccccc34)C(N)=O)C(C)C)(C2)NC1=O` (single isomer, unassigned) [FP0569c Isomer 1, Ac-A-R8-I-L-D-A-2pyr-I-MB-fur-V-W-NH2], for which the 50% effective concentration (EC50) is above 5 µM.

Take `CC[C@H](C)[C@@H]1NC(=O)[C@H](Cc2ccccn2)NC(=O)[C@H](C)NC(=O)[C@H](CC(=O)O)NC(=O)[C@H](CC(C)C)NC(=O)[C@H]([C@@H](C)CC)NC(=O)[C@](C)(NC(=O)[C@H](C)NC(C)=O)CCCCCCC=CCOC(=O)N2CC[C@@](C(=O)N[C@@H](Cc3ccco3)C(=O)N[C@H](C(=O)N[C@@H](Cc3c[nH]c4ccccc34)C(N)=O)C(C)C)(C2)NC1=O` (single isomer, unassigned) [FP0569c Isomer 2, Ac-A-R8-I-L-D-A-2pyr-I-MB-fur-V-W-NH2]: the EC50 was above 5 µM.

Consider `CC[C@H](C)[C@@H]1NC(=O)[C@H](Cc2ccccn2)NC(=O)[C@H](C)NC(=O)[C@H](CC(=O)O)NC(=O)[C@H](CC(C)C)NC(=O)[C@H]([C@@H](C)CC)NC(=O)[C@](C)(NC(=O)[C@H](C)NC(C)=O)CCCCCCC=CCOC(=O)N2CC[C@@](C(=O)NC(C)(C)C(=O)N[C@H](C(=O)N[C@@H](Cc3c[nH]c4ccccc34)C(N)=O)C(C)C)(C2)NC1=O` (single isomer, unassigned) [FP0570c Isomer 1, Ac-A-R8-I-L-D-A-2pyr-I-MB-Aib-V-W-NH2], for which the EC50 was above 5 µM.

In the case of `CC[C@H](C)[C@@H]1NC(=O)[C@H](Cc2ccccn2)NC(=O)[C@H](C)NC(=O)[C@H](CC(=O)O)NC(=O)[C@H](CC(C)C)NC(=O)[C@H]([C@@H](C)CC)NC(=O)[C@](C)(NC(=O)[C@H](C)NC(C)=O)CCCCCCC=CCOC(=O)N2CC[C@@](C(=O)NC(C)(C)C(=O)N[C@H](C(=O)N[C@@H](Cc3c[nH]c4ccccc34)C(N)=O)C(C)C)(C2)NC1=O` (single isomer, unassigned) [FP0570c Isomer 2, Ac-A-R8-I-L-D-A-2pyr-I-MB-Aib-V-W-NH2], the EC50 is above 5 µM.

In the case of `CC[C@H](C)[C@@H]1NC(=O)[C@H](Cc2ccccn2)NC(=O)[C@H](C)NC(=O)[C@H](CC(=O)O)NC(=O)[C@H](CC(C)C)NC(=O)[C@H]([C@@H](C)CC)NC(=O)[C@](C)(NC(=O)[C@H](C)NC(C)=O)CCCCCCC=CCOC(=O)N2CC[C@@](C(=O)N[C@@H](Cc3cccs3)C(=O)N[C@H](C(=O)N[C@@H](Cc3c[nH]c4ccccc34)C(N)=O)C(C)C)(C2)NC1=O` (single isomer, unassigned) [FP0571c Isomer 1, Ac-A-R8-I-L-D-A-2pyr-I-MB-thi-V-W-NH2], the EC50 was above 5 µM.

On to `CC[C@H](C)[C@@H]1NC(=O)[C@H](Cc2ccccn2)NC(=O)[C@H](C)NC(=O)[C@H](CC(=O)O)NC(=O)[C@H](CC(C)C)NC(=O)[C@H]([C@@H](C)CC)NC(=O)[C@](C)(NC(=O)[C@H](C)NC(C)=O)CCCCCCC=CCOC(=O)N2CC[C@@](C(=O)N[C@@H](Cc3cccs3)C(=O)N[C@H](C(=O)N[C@@H](Cc3c[nH]c4ccccc34)C(N)=O)C(C)C)(C2)NC1=O` (single isomer, unassigned) [FP0571c Isomer 2, Ac-A-R8-I-L-D-A-2pyr-I-MB-thi-V-W-NH2], for which the concentration giving a half-maximal response (EC50) was above 5 µM.

Regarding `CC[C@H](C)[C@@H]1NC(=O)[C@H](Cc2ccccn2)NC(=O)[C@H](C)NC(=O)[C@H](CC(=O)O)NC(=O)[C@H](CC(C)C)NC(=O)[C@H]([C@@H](C)CC)NC(=O)[C@](C)(NC(=O)[C@H](C)NC(C)=O)CCCCCCC=CCOC(=O)N2CC[C@@](C(=O)N[C@@H](Cc3ccccn3)C(=O)N[C@H](C(=O)N[C@@H](Cc3c[nH]c4ccccc34)C(N)=O)C(C)C)(C2)NC1=O` (single isomer, unassigned) [FP0572c Isomer 1, Ac-A-R8-I-L-D-A-2pyr-I-MB-2pyr-V-W-NH2], the concentration for a half-maximal effect (EC50) was above 5 µM.

For the compound `CC[C@H](C)[C@@H]1NC(=O)[C@H](Cc2ccccn2)NC(=O)[C@H](C)NC(=O)[C@H](CC(=O)O)NC(=O)[C@H](CC(C)C)NC(=O)[C@H]([C@@H](C)CC)NC(=O)[C@](C)(NC(=O)[C@H](C)NC(C)=O)CCCCCCC=CCOC(=O)N2CC[C@@](C(=O)N[C@@H](Cc3cccnc3)C(=O)N[C@H](C(=O)N[C@@H](Cc3c[nH]c4ccccc34)C(N)=O)C(C)C)(C2)NC1=O` (single isomer, unassigned) [FP0573c Isomer 1, Ac-A-R8-I-L-D-A-2pyr-I-MB-3pyr-V-W-NH2], the EC50 is above 5 µM.

`CC[C@H](C)[C@@H]1NC(=O)[C@H](Cc2ccccn2)NC(=O)[C@H](C)NC(=O)[C@H](CC(=O)O)NC(=O)[C@H](CC(C)C)NC(=O)[C@H]([C@@H](C)CC)NC(=O)[C@](C)(NC(=O)[C@H](C)NC(C)=O)CCCCCCC=CCOC(=O)N2CC[C@@](C(=O)N[C@@H](Cc3cccnc3)C(=O)N[C@H](C(=O)N[C@@H](Cc3c[nH]c4ccccc34)C(N)=O)C(C)C)(C2)NC1=O` (single isomer, unassigned) [FP0573c Isomer 2, Ac-A-R8-I-L-D-A-2pyr-I-MB-3pyr-V-W-NH2]: the EC50 is above 5 µM.

As to `CC[C@H](C)[C@@H]1NC(=O)[C@H](Cc2ccccn2)NC(=O)[C@H](C)NC(=O)[C@H](CC(=O)O)NC(=O)[C@H](CC(C)C)NC(=O)[C@H]([C@@H](C)CC)NC(=O)[C@](C)(NC(=O)[C@H](C)NC(C)=O)CCCCCCC=CCOC(=O)N2CC[C@@](C(=O)N[C@@H](CC3CC3)C(=O)N[C@H](C(=O)N[C@@H](Cc3c[nH]c4ccccc34)C(N)=O)C(C)C)(C2)NC1=O` (single isomer, unassigned) [FP0574c Isomer 1, Ac-A-R8-I-L-D-A-2pyr-I-MB-cpa-V-W-NH2], the EC50 is above 5 µM.
